Experimental data as given in patent publication US20040038875A1, “Alpha 7nicotinic receptor screening assays” (priority 2002, published 2004).

Key:
[1] = test system: neurons of the substantia nigra; settings: cited from earlier work
[2] = target: T1, homomeric alpha 7 nicotinic receptors (Homo sapiens, UniProt P36544); settings: cited from earlier work
hippocampal neurons = experiment: Ca2+ flux into hippocampal neurons; type: cell-based
Source text: This is of particular interest in relation to Alzheimer's Disease since the hippocampus is the major site of degeneration neuropathology associated with that disease.

[3] = target: T2, human alpha 7 nicotinic receptor (Homo sapiens, UniProt P36544); experiment: ACh-induced currents / Ca2+ flux in Xenopus oocytes expressing human alpha 7 nicotinic receptors (two microelectrode voltage clamp, intracellular recordings); type: cell-based
T2 construct: expressed in transfected cells; host or cells: Xenopus oocytes injected with in vitro transcribed alpha 7 subunit mRNA
T2 sequence (P36544 23-502): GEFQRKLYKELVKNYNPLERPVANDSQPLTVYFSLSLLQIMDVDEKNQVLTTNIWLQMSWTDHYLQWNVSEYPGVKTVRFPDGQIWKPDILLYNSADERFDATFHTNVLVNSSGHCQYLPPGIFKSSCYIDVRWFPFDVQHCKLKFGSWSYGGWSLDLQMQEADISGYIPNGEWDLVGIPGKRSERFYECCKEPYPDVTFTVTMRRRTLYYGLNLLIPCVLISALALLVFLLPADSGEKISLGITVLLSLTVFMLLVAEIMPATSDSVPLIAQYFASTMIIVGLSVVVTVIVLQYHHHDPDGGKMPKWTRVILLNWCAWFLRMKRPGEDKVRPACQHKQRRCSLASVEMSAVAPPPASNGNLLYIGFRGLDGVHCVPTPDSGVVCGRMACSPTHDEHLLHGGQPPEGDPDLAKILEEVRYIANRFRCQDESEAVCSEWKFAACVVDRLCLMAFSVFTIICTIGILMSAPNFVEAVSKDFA

[4] = target: T1, homomeric alpha 7 nicotinic receptors; design: host or cells: oocytes; settings: in the μM range, human receptor in oocytes; cited from earlier work
[5] = target: T3, neuronal chick homomeric alpha 7 nicotinic receptors (Gallus gallus, UniProt P22770); settings: in the μM range, chick receptor in oocytes; cited from earlier work
T3 construct: host or cells: oocytes
T3 sequence (P22770 23-502 limits assumed): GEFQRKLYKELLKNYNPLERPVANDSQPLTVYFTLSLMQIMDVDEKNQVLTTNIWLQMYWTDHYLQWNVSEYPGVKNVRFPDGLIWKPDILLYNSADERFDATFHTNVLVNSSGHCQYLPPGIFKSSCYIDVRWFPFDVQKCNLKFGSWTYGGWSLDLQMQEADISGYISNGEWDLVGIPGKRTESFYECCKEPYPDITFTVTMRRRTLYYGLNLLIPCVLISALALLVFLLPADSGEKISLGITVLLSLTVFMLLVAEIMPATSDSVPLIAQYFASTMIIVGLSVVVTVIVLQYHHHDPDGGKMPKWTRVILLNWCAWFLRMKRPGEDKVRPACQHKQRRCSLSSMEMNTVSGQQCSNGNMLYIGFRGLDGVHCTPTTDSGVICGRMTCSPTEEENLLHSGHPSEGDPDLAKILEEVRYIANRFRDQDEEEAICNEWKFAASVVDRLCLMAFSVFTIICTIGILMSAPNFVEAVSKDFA

T1 sequence (P36544 23-502): as the sequence (P36544 23-502) above

Aβ1-42: Aβ1-42 fragment of human APP associated with Alzheimer's Disease [reference compound]
modulation of calcium influx [1]: not observed

COc1ccc(/C=C2\CCCN=C2c2cccnc2)c(OC)c1 [GTS-21, 2,4-dimethoxybenzylidene anabaseine]
functional selectivity compared to α4β2 nicotinic receptors [2]: high functional selectivity

AEFHRWSSYMVHWK [Synaptica Peptide]
Ca2+ flux into hippocampal neurons (hippocampal neurons): enhance Ca^2+ flux into hippocampal neurons which eventually switches off calcium channels
reversibility of effects [3]: reversible but recovery was slow
effect on ACh-induced Ca2+ flux ([3]; 0.001 μM applied with ACh, no pre-incubation): increased Ca^2+ flux
Ca2+ current, intracellular recordings ([3]; 10 μM applied without ACh): no Ca^2+ current was observed
current, intracellular recordings ([3]; 10 μM followed after 30 seconds by 100 μM ACh): reduced current compared to that observed with ACh alone
effect on ACh-evoked response at high dose ([3]; high dose, range 10^−12 to 5×10^−6): enhancement of ACh-evoked response observed with low doses of the peptide was reversed
effect on ACh-mediated responses ([3]; peptide applied, after 2 minutes co-application of peptide and ACh): inhibition of ACh-mediated responses
calcium potentials induced by NMDA or direct depolarisation ([1]; initial effect): initially enhances calcium potentials
calcium entry ([1]; sustained application for a few minutes): reduction in calcium entry

ivermectin
acetyl choline-evoked currents [4]: strongly enhance
acetyl choline-evoked currents [5]: strongly enhance
